PMC7699745, “The Search for New Anticonvulsants in a Group of (2,5-Dioxopyrrolidin-1-yl)(phenyl)Acetamides with Hybrid Structure—Synthesis and In Vivo/In Vitro Studies” (International Journal of Molecular Sciences, 2020)
Where two headings read alike, the source gives them in different places.

Experiments:
MES seizures, mice = test: Maximal electroshock (MES) seizure test; type: in vivo; conditions: Mus musculus, ip; for responders at 100 mg/kg: 0.5 h, i.p.; for ED50: at TPE (0.5 h; LTG 1.0 h), 95% confidence intervals in parentheses
[1] = system: 6 Hz (32 mA) seizures, mice; test: Psychomotor 6 Hz (32 mA) seizure model; type: in vivo; conditions: for responders at 100 mg/kg / ED50: Mus musculus, ip; for responders at 100 mg/kg / protection in the 6 Hz (32 mA) test: 0.5 h, 100 mg/kg; for responders at 100 mg/kg: read-out: 6 Hz (32 mA) test, number of mice protected / number of mice tested (converted); for ED50: at TPE (0.5 h; LTG 1.0 h), 95% confidence intervals in parentheses; for protection in the 6 Hz (32 mA) test: i.p., groups of four
[2] = Rotarod test for acute neurological toxicity; conditions: mouse, in vivo, ip
[3] = system: motor coordination of mice; test: Rotarod test for acute neurological toxicity; conditions: for impairment of motor coordination of mice: doses as high as 300 mg/kg; for Rotarod test, number of mice / number of mice tested: i.p., 100 mg/kg, 0.5 h
[4] = read-out: MES test, number of mice protected / number of mice tested (converted)
[5] = groups of four, read-out: protection in the MES test

SMILES | responders at 100 mg/kg (MES seizures, mice; [4]) | melting point | responders at 100 mg/kg (MES seizures, mice; [5]) | ED50 (MES seizures, mice) | responders at 100 mg/kg [1] | ED50 [1] | protection in the 6 Hz (32 mA) test [1] | TD50 at 0.5 h [2] | impairment of motor coordination of mice [3] | Rotarod test, number of mice / number of mice tested [3]
O=C(NCc1ccc(F)cc1)C(c1ccccc1)N1C(=O)CCC1=O (stereo not shown) [Compound 17, 2-(2,5-Dioxopyrrolidin-1-yl)-N-(4-fluorobenzyl)-2-phenylacetamide] | 0% | 146.3 to 147.7 °C | – | – | – | – | – | – | – | –
O=C(Nc1cccc(OC(F)(F)F)c1)C(c1ccccc1)N1C(=O)CCC1=O (stereo not shown) [Compound 13, 2-(2,5-Dioxopyrrolidin-1-yl)-2-phenyl-N-(3-(trifluoromethoxy)phenyl)acetamide] | 0% | 132.6 to 133.4 °C | – | – | – | – | – | – | – | –
O=C(NCc1cccc(Cl)c1)C(c1ccccc1)N1C(=O)CCC1=O (stereo not shown) [Compound 19, N-(3-Chlorobenzyl)-2-(2,5-dioxopyrrolidin-1-yl)-2-phenylacetamide] | 75% | – | ≥ 50% | 90.7 mg/kg | 50% | 89.9 mg/kg | at least 50% | > 300 mg/kg | did not impair motor coordination | 0/4
O=C(Nc1ccccc1C(F)(F)F)C(c1ccccc1)N1C(=O)CCC1=O (stereo not shown) [Compound 10, 2-(2,5-Dioxopyrrolidin-1-yl)-2-phenyl-N-(2-(trifluoromethyl)phenyl)acetamide] | 0% | – | – | – | – | – | – | – | – | –
O=C(NCc1ccc(Cl)cc1)C(c1ccccc1)N1C(=O)CCC1=O (stereo not shown) [Compound 20, N-(4-Chlorobenzyl)-2-(2,5-dioxopyrrolidin-1-yl)-2-phenylacetamide] | 0% | 146.3 to 147.9 °C | – | – | – | – | – | – | – | –
O=C(NCc1ccccc1Cl)C(c1ccccc1)N1C(=O)CCC1=O (stereo not shown) [Compound 18, N-(2-Chlorobenzyl)-2-(2,5-dioxopyrrolidin-1-yl)-2-phenylacetamide] | 0% | 152 to 153.6 °C | – | – | – | – | – | – | – | –
O=C(NCc1ccc(C(F)(F)F)cc1)C(c1ccccc1)N1C(=O)CCC1=O (stereo not shown) [Compound 23, 2-(2,5-Dioxopyrrolidin-1-yl)-2-phenyl-N-(4-(trifluoromethyl)benzyl)acetamide] | 0% | – | – | – | – | – | – | – | – | –
O=C(NCc1ccccc1F)C(c1ccccc1)N1C(=O)CCC1=O (stereo not shown) [Compound 15, 2-(2,5-Dioxopyrrolidin-1-yl)-N-(2-fluorobenzyl)-2-phenylacetamide] | 25% | 148.3 to 149.3 °C | – | – | – | – | – | – | – | –
O=C(NCCc1ccccc1F)C(c1ccccc1)N1C(=O)CCC1=O (stereo not shown) [Compound 26, 2-(2,5-Dioxopyrrolidin-1-yl)-N-(2-fluorophenethyl)-2-phenylacetamide] | 25% | 142.4 to 142.8 °C | – | – | – | – | – | – | – | –
O=C(NCc1ccccc1)C(c1ccccc1)N1C(=O)CCC1=O (stereo not shown) [Compound 14, N-Benzyl-2-(2,5-dioxopyrrolidin-1-yl)-2-phenylacetamide] | 50% | 128.3 to 129.9 °C | ≥ 50% | > 130 mg/kg | 50% | 62.9 mg/kg | at least 50% | > 300 mg/kg | did not impair motor coordination | 1/4
O=C(NCc1cccc(C(F)(F)F)c1)C(c1ccccc1)N1C(=O)CCC1=O (stereo not shown) [Compound 22, 2-(2,5-Dioxopyrrolidin-1-yl)-2-phenyl-N-(3-(trifluoromethyl)benzyl)acetamide] | 75% | 152.8 to 153.4 °C | ≥ 50% | > 130 mg/kg | 50% | 57.6 mg/kg | at least 50% | > 300 mg/kg | did not impair motor coordination | 0/4
O=C(Nc1cccc(F)c1)C(c1ccccc1)N1C(=O)CCC1=O (stereo not shown) [Compound 5, 2-(2,5-Dioxopyrrolidin-1-yl)-N-(3-fluorophenyl)-2-phenylacetamide] | 0% | – | – | – | 25% | – | – | – | – | –
O=C(Nc1cccc(C(F)(F)F)c1)C(c1ccccc1)N1C(=O)CCC1=O (stereo not shown) [Compound 11, 2-(2,5-Dioxopyrrolidin-1-yl)-2-phenyl-N-(3-(trifluoromethyl)phenyl)acetamide] | 25% | 158.2 to 159.4 °C | – | – | – | – | – | – | – | –
O=C(Nc1cccc(Cl)c1)C(c1ccccc1)N1C(=O)CCC1=O (stereo not shown) [Compound 8, N-(3-Chlorophenyl)-2-(2,5-dioxopyrrolidin-1-yl)-2-phenylacetamide] | 75% | 109.4 to 109.9 °C | ≥ 50% | 73.5 mg/kg | 25% | – | – | > 300 mg/kg | did not impair motor coordination | 0/4
O=C(NCCc1ccc(Cl)cc1)C(c1ccccc1)N1C(=O)CCC1=O (stereo not shown) [Compound 28, N-(4-Chlorophenethyl)-2-(2,5-dioxopyrrolidin-1-yl)-2-phenylacetamide] | 100% | 137.2 to 137.8 °C | – | 117 mg/kg | 75% | 88.1 mg/kg | – | 272 mg/kg | – | 1/4
O=C(Nc1ccc(C(F)(F)F)cc1)C(c1ccccc1)N1C(=O)CCC1=O (stereo not shown) [Compound 12, 2-(2,5-Dioxopyrrolidin-1-yl)-2-phenyl-N-(4-(trifluoromethyl)phenyl)acetamide] | 0% | 188.1 to 188.5 °C | – | – | – | – | – | – | – | –
O=C(Nc1ccc(F)cc1)C(c1ccccc1)N1C(=O)CCC1=O (stereo not shown) [Compound 6, 2-(2,5-Dioxopyrrolidin-1-yl)-N-(4-fluorophenyl)-2-phenylacetamide] | 50% | 143.4 to 143.9 °C | ≥ 50% | 118 mg/kg | 50% | 57.6 mg/kg | at least 50% | > 300 mg/kg | did not impair motor coordination | 0/4
O=C(Nc1ccccc1Cl)C(c1ccccc1)N1C(=O)CCC1=O (stereo not shown) [Compound 7, N-(2-Chlorophenyl)-2-(2,5-dioxopyrrolidin-1-yl)-2-phenylacetamide] | 0% | 76.8 to 78.6 °C | – | – | 25% | – | – | – | – | –
O=C(NCc1cccc(F)c1)C(c1ccccc1)N1C(=O)CCC1=O (stereo not shown) [Compound 16, 2-(2,5-Dioxopyrrolidin-1-yl)-N-(3-fluorobenzyl)-2-phenylacetamide] | 25% | 136.7 to 137.7 °C | – | – | – | – | – | – | – | –
O=C(Nc1ccc(Cl)cc1)C(c1ccccc1)N1C(=O)CCC1=O (stereo not shown) [Compound 9, N-(4-Chlorophenyl)-2-(2,5-dioxopyrrolidin-1-yl)-2-phenylacetamide] | 75% | 103.8 to 105.6 °C | ≥ 50% | 106 mg/kg | 25% | – | – | > 300 mg/kg | did not impair motor coordination | 0/4
O=C(NCCCc1ccccc1)C(c1ccccc1)N1C(=O)CCC1=O (stereo not shown) [Compound 31, 2-(2,5-Dioxopyrrolidin-1-yl)-2-phenyl-N-(3-phenylpropyl)acetamide] | 50% | 133.1 to 133.9 °C | ≥ 50% | – | 50% | 104 mg/kg | – | > 300 mg/kg | – | 0/4
